From patent publication US20140256663A1, “Amphotericin Analogous Compounds and Pharmaceutical Compositions Containing Them” (CENTRO DE INVESTIGACION Y DE ESTUDIOS AVANZADOS DEL …, priority 2010, published 2014)
In brackets after ≈: the same amount, converted by molar mass. Entries after “also recorded” stand apart in the source; their conditions may differ. Read-outs that look alike come from different tables or passages of the source.

Legend:
[1] = test system: Candida albicans ATCC 10231; experiment: Antifungal activity in vitro by flow cytometry, Candida albicans ATCC 10231; assay type: cell-based
[2] = test system: Candida albicans ATCC 752; experiment: Antifungal activity in vitro by flow cytometry, Candida albicans ATCC 752; assay type: cell-based; settings: read-out: CF50 Candida albicans ATCC 752
Experimental: The antifungal activity of the polyene macrolide derivate of the present invention was determined by flow cytometry method earlier described (Pinto et al., J. Medical Microbiology, 2009; 58, 1454-1462; Pina-Vaz and Rodriguez, Methods Mol. Biol. 2010; 638:281-289). For the test two strains of Candida albicans (ATCC 10231 and 752) and Candida kruzei were used. A cellular suspension of 1×10^6 UFC/mL was used, which has sown in 96-well plates. […] As controls were used: untreated yeasts (control of living cells), yeasts exposed to UV radiation (arrest, inhibition of proliferation), and yeasts exposed at temperature of 100° C. (dead yeasts). Cells were collected by centrifugation at 10,000×g for 10 min, they were washed once in phosphate buffer. […] of propidium iodide 0.1 mg/mL were added to the cell suspension. It was incubated during 30 minutes at room temperature and protected from light. Finally, the samples were analyzed by flow cytometry (Becton-Dickinson Facsc Calibur, laser argon 480 nm). The intrinsic parameters and fluorescence in the FL2 channel (yellow/orange fluorescence) for FUN and channel FL3 (red fluorescence, filter 630 nm) for propidium iodide were acquired and registered on a logarithmic scale for a minimum of 7500 events per sample. For data analysis, the quadrants were adjusted in a plot of data lines of fluorescence intensity of samples. […] These quadrants were used to quantify the percentile of cells showing altered fluorescence compared to drug-free controls.

[3] = test system: human renal cells 293Q (ATCC CLR-1573); experiment: MTT cytotoxicity on human renal cells 293Q
Experimental: For cytotoxicity studies human kidney cells (ATCC No. CRL-1573) were used. The cells were cultured with Minimum Essential Medium (MEM) (GIBCO BRL), supplemented with 10% fetal bovine serum (FBS) (GIBCO BRL), 2 mM 1-glutamine (GIBCO BRL), 1.5 gL Na2HCO3 (Sigma Chemical Co), 0.1 mM nonessential amino acids (Sigma Chemical Co), and 1 mM sodium pyruvate (In vitro, S.A.). The technique of bromide of 3(4,5-dimethylthiazol-2-yl)-2,5-diphenyl tetrazolium (MTT) (Sigma Chemical Co) was applied; a technique which is based on the conversion of dye to an insoluble precipitate called formazan. This test is used as an indicator of mitochondrial function in living cells that measures the metabolic capacity in cells and serves as an indicator of cytotoxicity. […] (Mosman […], Immunol Methods, 65: 55-63). The cytoxicity test consisted of planting 10,000 cells per well in 96-well plates (Corning Incorporated Costar) in MEM and incubate them (Nuaire us autoflow CO2 water-jacketed incubator) during 24 h at 37° C. and 5% CO2. […] After incubation, cells were treated and incubated anew for 24 h. After this time the medium was aspirated carefully and replaced with 200 μL of fresh medium, and 50 μL of MTT was added for a total volume of 250 μl. They were then incubated for 4 hours in the above conditions. After that time the medium with MTT was carefully removed and 200 μL of DMSO and 25 μL of Sorensen buffer (0.1 M glycine+0.1 M NaCl at pH 10.5) were added to each well. The plate was then mixed until the formazan crystals dissolved, and it was finally read in a plate reader (Microplate Limaning System Ultramark, Biorad) at a wavelength of 550 nm.
For the tests, we used human renal ephythelial cells (293Q) (ATCC Catalog No. CRL-1573). The cells were cultured with Minimum Essential Medium (MEM) (GIBCO BRL) supplemented with 10% fetal bovine serum (FBS) (GIBCO BRL), 2 mM L-glutamine (GIBCO BRL), 1.5 g/L Na2HCO3 (Sigma Chemical Co), 0.1 mM nonessential amino acids (Sigma Chemical Co), and 1 mM sodium pyruvate (In vitro, S.A.). For cytoxicity tests, we applied the technique of bromide 3(4,5-dimethylthiazol-2-yl)-2,5-diphenyl tetrazolium (MTT) (Sigma Chemical Co), which is based on the conversion of the dye to an insoluble precipitate called formazan. This test is used as an indicator of mitochondrial function in living cells which measures the metabolic capacity in cells and serves as an indicator of cytotoxicity. (Wang, H. Z., Chang, C. H., Lin, C. P., Tsai, M. C). Using MTT viability assay to test the cytotoxicity of antibiotics and steroid to cultured porcine corneal endothelial cells. J. Ocul. Pharmacol. Ther. 1996; 12: 35-43). For the essay 10,000 cells were seeded per well in 96-well plates (Corning Incorporated Costar) in the medium already indicated and incubated for 24 h at 37° C. and 5% CO2. […] After incubation, cells were treated and incubated again for 24 h. The medium was carefully aspirated and replaced with 200 μl fresh medium, adding 50 μl MTT solution for a total volume of 250 μl. They were then incubated for 4 hours in the above conditions. The medium was carefully removed with MTT and 200 μl DMSO and 25 μl Sorense buffer (0.1 M glycine+0.1 M NaCl at pH 10.5) was added to each well. Then the plate was mixed until the formazan crystals dissolved; it was finally read in a reader plate (Microplate Limaning System Ultramark, Biorad) at a wavelength of 550 nm.

[4] = Unit channel studies in chicken egg lecithin bilayers with cholesterol
Experimental: The activity is determined by the presence of the different channels formed by polyenes in the lipid bilayer (Cotero, et al., supra; Venegas, et al., supra). […] These values were determined by the technique of unit channel delineated above.
Unit channel studies were performed according to procedures described earlier (Cotero, et al., supra, Venegas, et al., supra). Required liposomal suspensions were prepared using lecithin with cholesterol or ergosterol. These suspensions were placed in an ultrasonic bath for 15 minutes to produce unilamellar vesicles. Subsequently, the suspension was placed in a 100 μl eppendorf and a lipid bilayer was formed on the tip of a micro-electrode. The unit channels of amphotericin and of the invented compounds were incorporated to this bilayer. The unit channel current of the various compounds was recorded with an electrometer, and then these records were analyzed by determining the activity of the compounds and the characteristics of the channels formed.
The activity is determined by the presence of the various channels formed by polyenes in the lipid bilayer (Cotero, et al., supra, Venegas, et al., supra). […] This conductance is the effect of all the channels present and was determined by the unit channel technique earlier described.

[5] = 200 μM compound, 30 mol % cholesterol, 27° C.

| SMILES | IC50 ([1]; ATCC10231, 24 h, read-out: CF50 Candida albicans ATCC 10231) [µM] | IC50 ([2]; ATCC752, 24 h) [µM] | collateral cytotoxicity on human renal cells 293Q compared to AmB ([3]; FIG. 2, FIG. 8, listed as amide 7) | DT50 CitE50 ([3]; human renal cells 293Q, 24 h) [µM] | Opening probability, channel type I [4, 5] [%] | Opening probability, channel type II [4, 5] [%] | Opening probability, channel type III [4, 5] [%] | Opening probability, channel type IV [4, 5] [%] | Opening probability, channel type V [4, 5] [%] | Opening probability, channel type VI [4, 5] | activity of transmembranal channels in the cholesterol membrane ([4]; in words, compared to AmB) | MIC50 ([1]; ATCC10231, Compounds of the present invention) [µg/mL] | IC50 ([2]; ATCC752, 24 h at 37° C.) [µM] | DT50 CitE50 ([3]; human, 24 h) [µM] | MIC50 Kidney cells (293Q) ([3]; human, 24 h) [µM] | Average conductance cholesterol ([4]; AmB 6 μM, 30° C.) [fS] |
| --- | --- | --- | --- | --- | --- | --- | --- | --- | --- | --- | --- | --- | --- | --- | --- | --- |
| COC(=O)[C@@H](Cc1c[nH]c2ccccc12)NC(=O)[C@@H]1C(O)C[C@@]2(O)C[C@@H](O)C[C@@H](O)[C@H](O)CC[C@@H](O)C[C@@H](O)CC(=O)OC(C)C(C)[C@H](O)C(C)/C=C/C=C/C=C/C=C/C=C/C=C/C=C/[C@H](OC3OC(C)C(O)C(N)C3O)CC1O2 (stereo partly shown) [A-7, N-(D)-tryptophanamide of AmB] | 1.5 | 8.2 | the lowest cytoxicity; also recorded: low cytoxicity | 220 | 14 | 7 | <1 | <1 | <1 | N.O. | more reduced activity of transmembranal channels |  |  |  |  |  |
| C[C@@H]1[C@H](O)[C@@H](C)/C=C/C=C/C=C/C=C/C=C/C=C/C=C/[C@H](O[C@@H]2O[C@H](C)[C@@H](O)[C@H](N)[C@@H]2O)C[C@@H]2O[C@](O)(C[C@@H](O)C[C@@H](O)[C@H](O)CC[C@@H](O)C[C@@H](O)CC(=O)O[C@H]1C)C[C@H](O)[C@H]2C(=O)O [AmB, Amphotericin B] |  |  |  |  |  |  |  |  |  |  |  | 0.2 (≈ 0.216 µM) | 1 | 9.7 | 9.7 (≈ 8.96 µg/mL) | 26.6 ± 9.9 |
